According to US20260234107A1, “TRYPTAMINES AND METHODS OF TREATING MOOD DISORDERS” (priority 2022, published 2026):
Where two headings read alike, the source gives them in different places.

Experiments:
[1] = system: monoamine oxidase A and B (MAO-A and MAO-B); test: Stability in the presence of monoamine oxidases (human liver mitochondria preparation); parameters: half-life / microsomal CLint: dose or concentration left out as unconfirmed; conditions: for stability in the presence of MAO (in words): human liver mitochondria preparation; for Remaining (t = 60 min) / half-life / microsomal CLint: human liver mitochondria; for half-life / microsomal CLint: human, pH 7.4
Description: Liver Mitochondria Incubations. Human liver mitochondria (Xenotech H0610.M) were used.

[2] = target: T1, 5-HT2B (Homo sapiens, UniProt P41595); test: FLIPR Ca2+ flux agonist assay at 5-HT2B; assay type: cell-based; conditions: for 5-HT2B % Act @ Max Dose: Ca2+ flux, HEK293, max dose
T1 construct: host or cells: HEK293
T1 sequence (P41595 whole entry, species assumed): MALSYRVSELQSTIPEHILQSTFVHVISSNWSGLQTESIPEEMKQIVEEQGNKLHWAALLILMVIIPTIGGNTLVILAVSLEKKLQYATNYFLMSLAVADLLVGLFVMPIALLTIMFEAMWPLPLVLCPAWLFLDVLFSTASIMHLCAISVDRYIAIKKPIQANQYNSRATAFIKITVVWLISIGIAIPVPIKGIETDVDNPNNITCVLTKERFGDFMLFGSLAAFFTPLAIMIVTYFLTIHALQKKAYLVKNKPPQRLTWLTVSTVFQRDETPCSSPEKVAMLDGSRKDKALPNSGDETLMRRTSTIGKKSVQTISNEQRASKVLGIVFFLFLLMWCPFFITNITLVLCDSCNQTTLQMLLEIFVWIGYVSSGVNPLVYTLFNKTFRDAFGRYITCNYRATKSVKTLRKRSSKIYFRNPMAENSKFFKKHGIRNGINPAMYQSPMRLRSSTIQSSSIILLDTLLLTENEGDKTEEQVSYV
Description: (§1) A solution of 250 mM probenecid in 1 mL FLIPR assay buffer was prepared fresh. This was combined with a fluorescent dye (Fluo-4 Direct™) to make a final assay concentration of 2.5 mM. […] The fluorescent dye was then added to the assay plate along with assay buffer to a final volume of 40 μL. The cell plate was incubated for 50 min at 37° C. and 5% CO2 and placed into the FLIPR Tetra along with the compound plate. 10 μL of references and compounds were then transferred from the compound plate into the cell plate and the fluorescent signal was read.

[3] = target: T2, 5-HT1A (Homo sapiens, UniProt P08908); test: FLIPR Ca2+ flux agonist assay at 5-HT1A; assay type: cell-based; conditions: for 5-HT1A % Act @ Max Dose: Ca2+ flux, CHO cells
T2 construct: host or cells: CHO cells
T2 sequence (P08908 1-422): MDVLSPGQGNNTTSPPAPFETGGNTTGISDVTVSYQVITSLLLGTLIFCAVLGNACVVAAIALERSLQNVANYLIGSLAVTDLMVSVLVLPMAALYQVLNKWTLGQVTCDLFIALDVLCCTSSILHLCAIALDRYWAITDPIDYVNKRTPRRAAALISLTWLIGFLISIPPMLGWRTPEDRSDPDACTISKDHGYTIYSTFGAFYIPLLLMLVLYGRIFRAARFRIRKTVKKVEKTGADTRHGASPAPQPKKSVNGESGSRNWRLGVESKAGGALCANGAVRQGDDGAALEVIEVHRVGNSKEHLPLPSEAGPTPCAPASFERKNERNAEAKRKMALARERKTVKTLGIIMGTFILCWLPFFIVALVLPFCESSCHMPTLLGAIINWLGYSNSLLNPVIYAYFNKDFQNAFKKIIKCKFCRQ
Description: as §1

[4] = Stability in mouse brain homogenate; assay type: in vitro ADME, male CD-1 mice; conditions: mouse brain homogenate, 1 μM, 37° C.; for half-life at 1 µM: male, CD-1
Description: Disclosed compounds were tested for stability in mouse brain homogenate (Table 7). There was widely variable stability among the test compounds under the conditions of the experiment.
(§2) Mouse Brain Homogenate Stability. Frozen mouse brain homogenate (pooled from male CD-1 mice, BioreclamationIVT, MSE00BRAINMZA) was thawed in a water bath at 37° C. immediately prior to use. Positive controls and test compounds (final concentration in incubation medium=1 μM for test compounds and 2 μM for controls, all with 2% DMSO) were incubated in duplicate for each time point (0, 10, 30, 60, and 120 min) in the mouse brain homogenate at a total reaction volume of 100 μL at 37° C. At the end of each incubation period, reactions were immediately quenched with 400 μL of acetonitrile containing internal standard (200 ng/mL tolbutamine and 200 ng/mL labetalol) and mixed thoroughly. Plates were then sealed, shaken for 20 min, and centrifuged at 4,000 rpm and 4° C. for 20 min. Aliquots of 50 μL of each supernatant were diluted into 100 μL of water and the mixtures were then shaken again for 10 min.

[5] = Stability in rat brain homogenate; assay type: in vitro ADME, male Sprague Dawley rats; conditions: rat brain homogenate, 1 μM, 37° C.; for half-life at 1 µM: male, Sprague Dawley
Description: Disclosed compounds were tested for stability in rat brain homogenate (Table 8). There was widely variable stability among the test compounds under the conditions of the experiment.
as §2, with “Rat” for “Mouse”, “rat” for “mouse”, “Sprague Dawley rats,” for “CD-1 mice,”, “RAT00BRAINMZA)” for “MSE00BRAINMZA)”

[6] = target: 5-HT2A (Homo sapiens, UniProt P28223); test: FLIPR Ca2+ flux agonist assay at 5-HT2A; assay type: cell-based; parameters: host or cells: HEK293; conditions: for 5-HT2A % Act @ Max Dose: HEK293, max dose
Sequence of 5-HT2A (P28223 whole entry): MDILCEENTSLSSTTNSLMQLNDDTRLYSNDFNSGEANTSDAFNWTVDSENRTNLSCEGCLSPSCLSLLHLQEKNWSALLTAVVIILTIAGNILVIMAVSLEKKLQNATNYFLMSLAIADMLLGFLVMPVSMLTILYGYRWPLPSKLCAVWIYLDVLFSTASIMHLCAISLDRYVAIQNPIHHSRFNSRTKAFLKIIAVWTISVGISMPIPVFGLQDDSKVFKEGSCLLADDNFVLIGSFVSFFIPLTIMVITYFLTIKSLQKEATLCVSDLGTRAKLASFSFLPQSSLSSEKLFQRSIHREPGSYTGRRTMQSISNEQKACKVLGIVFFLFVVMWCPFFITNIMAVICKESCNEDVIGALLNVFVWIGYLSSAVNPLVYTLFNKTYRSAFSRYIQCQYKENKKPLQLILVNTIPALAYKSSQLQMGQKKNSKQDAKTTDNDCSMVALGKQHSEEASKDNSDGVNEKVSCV
Description: as §1

[7] = Metabolic stability in human liver microsomes (HLM); parameters: microsomal CLint / half-life: dose or concentration left out as unconfirmed; conditions: both, human, pooled human liver microsomes, pH 7.4
[8] = Ca2+ flux, HEK293, read-out: 5-HT2A EC50

SMILES: NCCc1c[nH]c2cc(F)cc(O)c12 [Compound 31, 3-(2-aminoethyl)-6-fluoro-1H-indol-4-ol]
- stability in the presence of MAO (in words) [1]: intermediate stability
- Remaining (t = 60 min) [1]: 24.6%
- half-life [1]: 30.1 min
- microsomal CLint [1]: 76.8 µL/min/mg
- EC50 [2]: 5.07 nM
- 5-HT2B % Act @ Max Dose [2]: 99.12%
- EC50 [3]: 12500 nM
- 5-HT1A % Act @ Max Dose [3]: 18.3%
- half-life at 1 µM [4]: 20.3 min
- % Compound Remaining (after 120 min) [4]: 1.6%
- half-life at 1 µM [5]: 11.4 min
- % Compound Remaining (after 120 min) [5]: 0%
- EC50 [6, 8]: 6.36 nM
- half-life [7]: 16.9 min
- microsomal CLint [7]: 81.8 µL/min/mg

SMILES: NCCc1c[nH]c2c(F)ccc(O)c12 [Compound 32, 3-(2-aminoethyl)-7-fluoro-1H-indol-4-ol]
- stability in the presence of MAO (in words) [1]: intermediate stability
- Remaining (t = 60 min) [1]: 24.0%
- half-life [1]: 28.4 min
- microsomal CLint [1]: 81.4 µL/min/mg
- EC50 [2]: 30.3 nM
- 5-HT2B % Act @ Max Dose [2]: 66.55%
- EC50 [3]: > 100000 nM
- 5-HT1A % Act @ Max Dose [3]: 38.64%
- half-life at 1 µM [4]: 29 min
- % Compound Remaining (after 120 min) [4]: 4.8%
- half-life at 1 µM [5]: 9.5 min
- % Compound Remaining (after 120 min) [5]: 0%
- EC50 [6, 8]: 7.3 nM
- half-life [7]: 16 min
- microsomal CLint [7]: 86.5 µL/min/mg

SMILES: CNCCc1c[nH]c2cc(F)cc(O)c12 [Compound 33, 6-fluoro-3-(2-(methylamino)ethyl)-1H-indol-4-ol]
- Remaining (t = 60 min) [1]: 14.3%
- half-life [1]: 20.2 min
- microsomal CLint [1]: 114 µL/min/mg
- EC50 [2]: 28.5 nM
- 5-HT2B % Act @ Max Dose [2]: 31.76%
- EC50 [3]: > 100000 nM
- 5-HT1A % Act @ Max Dose [3]: 3.51%
- half-life at 1 µM [4]: 16 min
- % Compound Remaining (after 120 min) [4]: 0.6%
- half-life at 1 µM [5]: 9.1 min
- % Compound Remaining (after 120 min) [5]: 0.4%
- EC50 [6, 8]: 5.8 nM
- half-life [7]: 10.1 min
- microsomal CLint [7]: 138 µL/min/mg

SMILES: CNCCc1c[nH]c2c(F)ccc(O)c12 [Compound 34, 7-fluoro-3-(2-(methylamino)ethyl)-1H-indol-4-ol]
- Remaining (t = 60 min) [1]: 6.4%
- half-life [1]: 15 min
- microsomal CLint [1]: 154 µL/min/mg
- EC50 [2]: > 10000 nM
- 5-HT2B % Act @ Max Dose [2]: 8.09%
- EC50 [3]: > 100000 nM
- 5-HT1A % Act @ Max Dose [3]: 36.72%
- half-life at 1 µM [4]: 21.7 min
- % Compound Remaining (after 120 min) [4]: 1.6%
- half-life at 1 µM [5]: 3.6 min
- % Compound Remaining (after 120 min) [5]: 0%
- EC50 [6]: 16.2 nM
- 5-HT2A % Act @ Max Dose ([6]; Ca2+ flux): 77.43%
- half-life [7]: 6.6 min
- microsomal CLint [7]: 209 µL/min/mg

SMILES: CCCNCCc1c[nH]c2ccc(F)c(O)c12 [Compound 36, 5-fluoro-3-(2-(propylamino)ethyl)-1H-indol-4-ol]
- Remaining (t = 60 min) [1]: 0.9%
- half-life [1]: 8.5 min
- microsomal CLint [1]: 272 µL/min/mg
- EC50 [2]: 26.2 nM
- 5-HT2B % Act @ Max Dose [2]: 44.90%
- EC50 [3]: > 100000 nM
- 5-HT1A % Act @ Max Dose [3]: 15.31%
- half-life at 1 µM [4]: 108 min
- % Compound Remaining (after 120 min) [4]: 46.2%
- half-life at 1 µM [5]: 31 min
- % Compound Remaining (after 120 min) [5]: 7.1%
- EC50 [6]: 12.1 nM
- 5-HT2A % Act @ Max Dose ([6]; Ca2+ flux): 71.78%
- half-life [7]: 49.9 min
- microsomal CLint [7]: 27.8 µL/min/mg

SMILES: CCNCCc1c[nH]c2ccc(C)c(O)c12 [Compound 37, 3-(2-(ethylamino)ethyl)-5-methyl-1H-indol-4-ol]
- Remaining (t = 60 min) [1]: 65.1%
- half-life [1]: 88.7 min
- microsomal CLint [1]: 26.1 µL/min/mg
- EC50 [2]: 274 nM
- 5-HT2B % Act @ Max Dose [2]: 16.28%
- EC50 [3]: 6950 nM
- 5-HT1A % Act @ Max Dose [3]: 64.6%
- half-life at 1 µM [4]: 69.9 min
- % Compound Remaining (after 120 min) [4]: 31.3%
- half-life at 1 µM [5]: 14.1 min
- % Compound Remaining (after 120 min) [5]: 0.2%
- EC50 [6]: 56.5 nM
- 5-HT2A % Act @ Max Dose ([6]; Ca2+ flux): 91.0%
- half-life [7]: 86.8 min
- microsomal CLint [7]: 16 µL/min/mg

SMILES: CCNCCc1c[nH]c2ccc(Cl)c(O)c12 [Compound 38, 5-chloro-3-(2-(ethylamino)ethyl)-1H-indol-4-ol]
- stability in the presence of MAO (in words) [1]: intermediate stability
- Remaining (t = 60 min) [1]: 22.6%
- half-life [1]: 26.1 min
- microsomal CLint [1]: 88.6 µL/min/mg
- EC50 [2]: 42.4 nM
- 5-HT2B % Act @ Max Dose [2]: 43.30%
- EC50 [3]: 1840 nM
- 5-HT1A % Act @ Max Dose [3]: 77.96%
- half-life at 1 µM [4]: 17.5 min
- % Compound Remaining (after 120 min) [4]: 0.9%
- half-life at 1 µM [5]: 9.2 min
- % Compound Remaining (after 120 min) [5]: 0%
- EC50 [6]: 10.5 nM
- 5-HT2A % Act @ Max Dose ([6]; Ca2+ flux): 103.70%
- half-life [7]: 13.2 min
- microsomal CLint [7]: 105 µL/min/mg

SMILES: CNCCc1c[nH]c2cc(C)cc(O)c12 [Compound 39, 6-methyl-3-(2-(methylamino)ethyl)-1H-indol-4-ol]
- Remaining (t = 60 min) [1]: 13.5%
- half-life [1]: 17.8 min
- microsomal CLint [1]: 130 µL/min/mg
- EC50 [2]: > 10000 nM
- 5-HT2B % Act @ Max Dose [2]: 10.04%
- EC50 [3]: > 100000 nM
- 5-HT1A % Act @ Max Dose [3]: 4.4%
- half-life at 1 µM [4]: 15.5 min
- % Compound Remaining (after 120 min) [4]: 0.4%
- half-life at 1 µM [5]: 6.3 min
- % Compound Remaining (after 120 min) [5]: 0.1%
- EC50 [6]: 78.4 nM
- 5-HT2A % Act @ Max Dose ([6]; Ca2+ flux): 76.43%
- half-life [7]: 9.9 min
- microsomal CLint [7]: 140 µL/min/mg
